Reference: US10087399B2, “Use of alkoxylated non-ionic surfactants as additive in aqueous membrane cleaning compositions” (BASF SE, priority 2012, dated 2018)

B1: Subtilisin: protease subtilisin (Subtilisin A type VIII from Bacillus licheniformis, 12 U/mg, Sigma-Aldrich) (protein, UniProt P00780 106-379, looked up)
Subtilisin Carlsberg: AQTVPYGIPLIKADKVQAQGFKGANVKVAVLDTGIQASHPDLNVVGGASFVAGEAYNTDGNGHGTHVAGTVAALDNTTGVLGVAPSVSLYAVKVLNSSGSGSYSGIVSGIEWATTNGMDVINMSLGGASGSTAMKQAVDNAYAKGVVVVAAAGNSGSSGNTNTIGYPAKYDSVIAVGAVDSNSNRASFSSVGAELEVMAPGAGVYSTYPTNTYATLNGTSMASPHVAGAAALILSKHPNLSASQVRNRLSSTATYLGSSFYYGKGLINVEAAAQ

Assays:
[1] = tested on: Cobetia marina (DSMZ4741) bacterial fouling layer; test: Cleaning of bacterial fouling layer on PA, fluorescence spectroscopy (DAPI / Concanavalin A); assay type: cell-based
Experimental: Bacterial Strain and Growth Conditions
To generate bacterial fouling layers, the marine bacterium Cobetia marina (DSMZ4741) was used in this study. The strain was purchased from the DSMZ culture collections, Germany. Sea Salt Peptone (SSP, all ingredients purchased from Sigma-Aldrich) (sea salt 20 g; peptone 18 g; deionised water 1,000 ml, pH 7.8) was used as the growth medium. The culture stock was maintained on Sea Salt Peptone Agar (SSPA, all ingredients purchased from Sigma-Aldrich) slants (sea salt 20 g; peptone 18 g; agar 30 g; deionised water 1,000 ml, pH 7.8). Prior to the experiments, the culture was grown in the SSP medium on a rotary shaker at 180 rpm at 28° C. for 20-22 h in order to obtain cells in the logphase.
Preparation of Bacterial Fouling Layers
The polyamid thin film substrates prepared on glass slides were conditioned for 24 h in artificial seawater (sea salt 20 g; deionised water 1,000 ml, pH 7.8) before being transferred to the bacterial cell suspensions. A freshly grown (logphase) bacterial suspension was prepared with an absorbance of 0.2 at a wavelength of 600 nm (DU 800, Beckman Coulter, Krefeld, Germany). The conditioned replicate slides (four for each assay) were placed into individual compartments of quadric petri dishes and 5 ml of the bacterial suspension was added thereby fully immersing the slides. The plates were placed in an incubator at 28° C. on a rotary shaker (90 rpm). After 1 h of incubation, the slides were transferred into new quadric petri dishes containing 5 ml of fresh SSP medium. The plates were incubated for another 4 h at 28° C. on a rotary shaker (90 rpm) for the attached bacteria to proliferate on the surface of the slides. At the end of the incubation, the slides were gently rinsed in artificial seawater to remove any non-adherent cells.
Cleaning Experiments with Bacterial Fouling Layers
Similar to the experiments using the multi-component molecular fouling layers, selected cleaning conditions (pH 12) and agents were tested for their ability to remove bacterial cells and EPS matrix. Additionally, the cleaning potential of the protease subtilisin (Subtilisin A type VIII from Bacillus licheniformis, 12 U/mg, Sigma-Aldrich) and methylglycine diacetic acid, sodium salt ([…], BASF SE) applied alone or in combination with the surfactant 2-propylheptanol, 6 EO, 1 PO (Lutensol⋅ XL 60, BASF SE) was evaluated. For that, the enzyme (100 μg/ml) and/or chelating agent (active concentration of 0.2%) and/or the surfactant (active concentration of 0.025%) were dissolved in 10 mM NaH2PO4 buffer (Sigma-Aldrich, pH 8.1). The bacterial fouling layers were immersed in the particular cleaning solution for 10 min at room temperature followed by rinsing in deionised water. After that, they were immediately fixed.
For fluorescence microscopy/spectroscopy and atomic force microscopy, bacterial fouling layers were fixed by transferring the respective slides into quadric petri dishes containing 4% paraformaldehyde (Sigma-Aldrich). After incubation for 15 min, the layers were rinsed with deionised water and dried by nitrogen.
For fluorescence staining, the slides were placed into custom-made incubation chambers in order to avoid backside staining. To stain the EPS matrix, Alexa 488-conjugated Concanavalin A (Molecular Probes, distributed by Invitrogen, Netherlands) dissolved in 0.1 M sodium bicarbonate (SigmaAldrich) buffer (pH 8.3) was added for 1 h in the dark (25 μg/cm^2). After incubation, the solution was removed and samples were washed with phosphate buffered saline (PBS, Sigma-Aldrich) twice. For staining of bacterial cells, DAPI solution (dissolved in PBS) was applied to Concanavalin A-stained samples for 5 min in the dark (25 μg/cm^2). After removal of the solution, the layers were washed with deionised water twice. Samples were taken out of the incubation chambers and dried by nitrogen.
Quantification of Cleaning Efficiency by Fluorescence Spectroscopy […]

[2] = Dynamic contact angle on PA; assay type: physicochemical; conditions: 0.2 g/l aqueous, 23° C.
Experimental: (§1) Determination of the Dynamic Contact Angle
(§2) The dynamic contact angle was measured with a video based high velocity measuring instrument for contact angle determination of the type OCAH 200 of the company Dataphysics Instruments 5 GmbH, Raiffeisenstr. 34, Fildersstadt, on the spin-coated glass slides.
(§3) The surfactants according to the invention listed in Tables […] used in an aqueous solution at a concentration of 0.2 g/l.
(§4) The contact angel is constantly determined (60 times per second) at 23° C. during 10 seconds after application. Under these conditions the contact angel of water without added surfactant remains at approximately at 65°. The contact angle on PA of the aqueous solutions of the branched tridecylethoxylates drops to 10° to 33°. The contact angle on PES of the aqueous solutions of the branched tridecylethoxylates drops to 17° to 37°. A contact angle after 10 seconds below 30° is preferred.

[3] = Dynamic contact angle on PES; assay type: physicochemical; conditions: 0.2 g/l aqueous, 23° C.
Experimental: as §1, §2, §3, §4

[4] = 10 mM NaH2PO4 buffer pH 8.1, surfactant 0.025%, chelating agent 0.2%, enzyme 100 μg/ml, 10 min

Row | Molecule | Cleaning Performance, Cells (DAPI) ([1]; 0.025%, pH 12, 10 min) | Cleaning Performance, Matrix (Concanavalin A) ([1]; 0.025%, pH 12, 10 min) | Cleaning Performance, Cells (DAPI) [1, 4] | Cleaning Performance, Matrix (Concanavalin A) [1, 4] | other results
1 | 2-Propylheptanol, 6 EO [Nr 22] | 25,1% | 0,2% | – | – | –
2 | 2-Propylheptanol, 6 EO, 1 PO [Nr 18] | 51,7% | 9,6% | 31,8% | 16,5% | –
3 | 2-Propylheptanol, 6 EO, 5 PO [Nr 38] | 52,8% | 15,2% | – | – | –
4 | CC(C(=O)[O-])N(CC(=O)[O-])CC(=O)[O-].[Na+].[Na+].[Na+] (stereo not shown) [Methylglycine diacetic acid, sodium salt, reference compound] | 73,5% | 42,5% | 47,7% | 42,5% | –
5 | branched C13—OH, 7 EO [Nr 4] | – | – | – | – | Contact angle at 0.1 s ([2]; 0.1 s): 48.2 °; Contact angle at 1 s ([2]; 1.0 s): 32.3 °; Contact angle at 10 s ([2]; 10.0 s): 10.5 °; Contact angle at 0.1 s ([3]; 0.1 s): 45.0°; Contact angle at 1 s ([3]; 1.0 s): 34.8°; Contact angle at 10 s ([3]; 10.0 s): 17.9°
6 | linear alkylbenzenesulfonate, sodium salt [Nr 41, reference compound] | 35,9% | 10,8% | – | – | –
7 | B1 | – | – | 17,8% | 10,5% | –
